Data reported in patent publication US20150105252A1, “SUBSTITUTED PYRAZOLES AS HERBICIDES” (E I DU PONT DE NEMOURS AND COMPANY, priority 2013, published 2015).

Assays:
foxtail, giant = assay: Test C preemergence; format: in vivo, Setaria faberii
In short: (§1)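 Pre- and postemergence greenhouse screen; vehicle was a non-phytotoxic solvent mix with surfactant. Preemergence: treatment applied right after sowing into loam and sand. Postemergence: treated at 1–4 leaves. Visual rating at 13–15 days, 100 = complete control.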

kochia = assay: Test C postemergence; format: in vivo, Kochia scoparia; settings: for Plant response rating (scale of 0 to 100 where 0 is no effect and 100 is complete control), Kochia: Postemergence, 31 g ai/ha, visually evaluated after 13 to 15 days; for Kochia plant response rating / Plant response rating, Kochia: postemergence; for Kochia plant response rating: 62 g ai/ha, scale 0 to 100
In short: as §1

ragweed [1] = assay: Test C preemergence; format: in vivo, Ambrosia elation
In short: as §1

pigweed [2] = assay: Test A preemergence; format: in vivo, Amaranthus retroflexus; settings: preemergence
In short: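 Injury readout: eye-scored versus untreated controls, 0 to 100. Exposure period: ~10 days, greenhouse. Application: soil-directed spray over sown seed (pre) or spray on seedlings 2–10 cm tall with one or two leaves (post), compound carried in non-phytotoxic solvent including surfactant.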

soybean = assay: Test C postemergence; format: in vivo, Glycine max; settings: for Plant response rating, Soybean / Soybean plant response rating: postemergence
In short: as §1

ragweed [3] = assay: Test C postemergence; format: in vivo, Ambrosia elation; settings: postemergence
In short: as §1

pigweed [4] = assay: Test C preemergence; format: in vivo, Amaranthus retroflexus
In short: as §1

barnyardgrass = assay: Test B flood; format: in vivo, Echinochloa crus-galli; settings: 250 g ai/ha, visual rating on 0 to 100 scale (0 no effect, 100 complete control), 13 to 15 days
In short: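 Each compound is applied to the floodwater of pots holding 2-leaf seedlings, water standing 3 cm over the soil throughout. Plants stay in a greenhouse 13 to 15 days before visual scoring against controls from 0 (no effect) to 100 (complete control).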

nutsedge, yellow = assay: Test C postemergence; format: in vivo, Cyperus esculentus; settings: for Plant response rating (scale of 0 to 100 where 0 is no effect and 100 is complete control), Nutsedge, Yellow: Postemergence, 31 g ai/ha, visually evaluated after 13 to 15 days; for Nutsedge, Yellow plant response rating / Plant response rating, Nutsedge, Yellow: postemergence; for Nutsedge, Yellow plant response rating: 62 g ai/ha, scale 0 to 100
In short: as §1

oilseed rape [5] = assay: Test C preemergence; format: in vivo, Brassica napus
In short: as §1

oat, wild = assay: Test C postemergence; format: in vivo, Avena fatua; settings: for Plant response rating (scale of 0 to 100 where 0 is no effect and 100 is complete control), Oat, Wild: Postemergence, 31 g ai/ha, visually evaluated after 13 to 15 days; for Oat, Wild plant response rating / Plant response rating, Oat, Wild: postemergence; for Oat, Wild plant response rating: 62 g ai/ha, scale 0 to 100
In short: as §1

oilseed rape [6] = assay: Test C postemergence; format: in vivo, Brassica napus; settings: for Oilseed Rape plant response rating / Plant response rating, Oilseed Rape: postemergence; for Oilseed Rape plant response rating: 62 g ai/ha, scale 0 to 100
In short: as §1

[7] = Preemergence, rate head not shown (block before 16 g ai/ha), scale 0 to 100
[8] = preemergence, 62 g ai/ha, scale 0 to 100 (0 no effect, 100 complete control), 13 to 15 days
[9] = preemergence, 125 g ai/ha, 13 to 15 days, scale 0 to 100, 0 = no effect, 100 = complete control
[10] = preemergence, 250 g ai/ha, scale 0 to 100, 0 is no effect, 100 is complete control
[11] = 250 g ai/ha, scale 0 to 100 (0 no effect, 100 complete control)
[12] = 125 g ai/ha, scale 0 to 100, 0 no effect, 100 complete control
[13] = preemergence, 31 g ai/ha, visual rating, scale 0 to 100 (0 no effect, 100 complete control), 13 to 15 days
[14] = preemergence, 125 g ai/ha, scale 0 to 100, 0 is no effect, 100 is complete control
[15] = Postemergence, 31 g ai/ha, visually evaluated after 13 to 15 days

Structure (SMILES) | Foxtail, Giant plant response rating (foxtail, giant; [8]) | Plant response rating (scale of 0 to 100 where 0 is no effect and 100 is complete control), Kochia (kochia) | Kochia plant response rating (kochia) | Plant response rating, Kochia (kochia; [11]) | Plant response rating, Kochia (kochia; [12]) | Ragweed plant response rating (ragweed [1]; [8]) | Plant response rating, Soybean (soybean; [11]) | Plant response rating, Ragweed (ragweed [3]; [11]) | Pigweed plant response rating (pigweed [4]; [8]) | Plant response rating, Barnyardgrass (barnyardgrass) | Plant response rating (scale of 0 to 100 where 0 is no effect and 100 is complete control), Nutsedge, Yellow (nutsedge, yellow) | Nutsedge, Yellow plant response rating (nutsedge, yellow) | Plant response rating, Nutsedge, Yellow (nutsedge, yellow; [11]) | Plant response rating, Nutsedge, Yellow (nutsedge, yellow; [12]) | Oilseed Rape plant response rating (oilseed rape [5]; [8]) | Plant response rating (scale of 0 to 100 where 0 is no effect and 100 is complete control), Oat, Wild (oat, wild) | Oat, Wild plant response rating (oat, wild) | Plant response rating, Oat, Wild (oat, wild; [11]) | Plant response rating, Oat, Wild (oat, wild; [12]) | Oilseed Rape plant response rating (oilseed rape [6]) | further results
CCc1cc(C(=O)NC2CC2)nn1Cc1ccnc(Br)c1 [Compound 220] | 75 | 80 | 85 | 90 | 90 | 65 | 75 | 45 | 100 | 0 | 0 | 0 | 10 | 40 | 30 | 0 | 5 | 15 | 10 | 5 | Plant response rating, Foxtail, Giant (foxtail, giant; [7]): 10; Plant response rating, Foxtail, Giant (foxtail, giant; [9]): 100; Foxtail, Giant plant response rating (foxtail, giant; [10]): 100; Plant response rating, Ragweed (ragweed [1]; [7]): 80; Plant response rating, Ragweed (ragweed [1]; [9]): 75; Ragweed plant response rating (ragweed [1]; [10]): 95; Pigweed plant response rating (0 to 100 scale) (pigweed [2]; 125 g ai/ha, visual injury approx. 10 days after treatment): 100; Soybean plant response rating (soybean; [12]): 30; Plant response rating, Ragweed (ragweed [3]; [12]): 50; Plant response rating, Pigweed (pigweed [4]; [7]): 65; Plant response rating, Pigweed (pigweed [4]; [9]): 100; Pigweed plant response rating (pigweed [4]; [10]): 100; Plant response rating, Oilseed Rape (oilseed rape [5]; [7]): 80; Plant response rating, Oilseed Rape (oilseed rape [5]; [9]): 85; Oilseed Rape plant response rating (oilseed rape [5]; [10]): 95; Plant response rating, Oilseed Rape (oilseed rape [6]; [11]): 40; Plant response rating, Oilseed Rape (oilseed rape [6]; [12]): 30
CCCNC(=O)c1cc(CC)n(Cc2nc(C(F)(F)F)nn2C)n1 [Compound 109] | 100 | 50 | 75 | 90 | 90 | 100 | 75 | 80 | 100 | 0 | 0 | 5 | 5 | 5 | 100 | 0 | 5 | 5 | 5 | 45 | Plant response rating (scale of 0 to 100), Foxtail, Giant (foxtail, giant; Preemergence, 250 g ai/ha): 100; Foxtail, Giant plant response rating (foxtail, giant; [13]): 100; Foxtail, Giant plant response rating (foxtail, giant; [14]): 100; Plant response rating (scale of 0 to 100), Ragweed (ragweed [1]; Preemergence, 250 g ai/ha): 100; Ragweed plant response rating (ragweed [1]; [13]): 100; Ragweed plant response rating (ragweed [1]; [14]): 100; Pigweed plant response rating (pigweed [2]; 125 g ai/ha, visual injury, 0 to 100 scale, approx. 10 days): 100; Pigweed plant response rating (pigweed [2]; 500 g ai/ha, visual injury after approx. 10 days, 0 to 100 scale (0 no effect, 100 complete control)): 100; Plant response rating (scale of 0 to 100 where 0 is no effect and 100 is complete control), Soybean (soybean; [15]): 55; Soybean plant response rating (soybean; 62 g ai/ha, scale 0 to 100): 60; Plant response rating, Soybean (soybean; [12]): 75; Plant response rating (scale of 0 to 100), Pigweed (pigweed [4]; Preemergence, 250 g ai/ha): 100; Pigweed plant response rating (pigweed [4]; [13]): 70; Pigweed plant response rating (pigweed [4]; [14]): 100; Plant response rating (scale of 0 to 100), Oilseed Rape (oilseed rape [5]; Preemergence, 250 g ai/ha): 100; Oilseed Rape plant response rating (oilseed rape [5]; [13]): 40; Oilseed Rape plant response rating (oilseed rape [5]; [14]): 100; Plant response rating (scale of 0 to 100 where 0 is no effect and 100 is complete control), Oilseed Rape (oilseed rape [6]; [15]): 40; Plant response rating, Oilseed Rape (oilseed rape [6]; [11]): 50; Plant response rating, Oilseed Rape (oilseed rape [6]; [12]): 45
